The source of these data is article PMC4581228, “Membrane Affinity of Platensimycin and Its Dialkylamine Analogs” (International Journal of Molecular Sciences, 2015).

For data set [1], the system named is E. coli. Also noted: method as in PMID 17707686. Particulars: Gram-negative; only when co-administered with Phe-Arg-β-naphthylamide dihydrochloride (PAβND), efflux pump inhibitor; cited from earlier work.
A short description of data set [2]: Langmuir monolayer pressure-area isotherms. It is filed as physicochemical, E. coli. The protocol: All Langmuir monolayer experiments were done with a two-barrier rectangular 22 cm × 6 cm trough (MicroTrough XS, Kibron Inc., Helsinki, Finland) placed in an Airclean hood. A Dyneprobe metal alloy needle was used as the Wilhelmy plate. Lipids used were E. coli total polar lipid extract from Avanti Polar Lipids (Alabaster, AL, USA) dissolved in chloroform or hexane to a final concentration of 0.2 mg/mL. Distribution of lipids onto the subphase was accomplished using a gastight 50 µL Hamilton® syringe (Hamilton, Reno, NV, USA). The subphase buffer was identical to the tensiometry buffer. Pressure—Area isotherms (monolayers) were performed at room temperature (~20 °C) from 114 to 18 cm^2 at a barrier rate of 20 mm/min. For each analog, isotherms were measured at least four times at every concentration.
In Langmuir experiments, the value of the bulk-monolayer (Klip) partitioning coefficient was determined in a similar way, using the deviations of surface pressure of monolayers measured at constant area. […] However, at this compression, strongly intercalating substances produced pressure shifts beyond the collapse pressure of 45–47 mN/m, which forced us to score Δπ from surface pressure of 20 mN/m achieved at ~80 Å^2/molecule. Klip1 obtained in this expanded state was than corrected for the lateral pressure increase from π1 = 20 to π2 = 35 mN/m, which has the same form as Equation (7) in [5]: (6) ln(Klip2)=ln(Klip1)−(π2−π1)adNA/RT
Here ad is the area taken by the drug in the plane of the monolayer.
To estimate ad we assumed equilibrium between the drug in the subphase and in the monolayer and equated its chemical potentials in the two phases: (7) μ0+RTln(χd)=μ0σ+RTln(χdσ)+π⋅adNA
The right part with indexes σ represents the surface parameters of standard chemical potential µ0σ and drug mole fraction χdσ , whereas the left part represents the bulk parameters. Defining lnKlip = µ0σ −µ0 one can rearrange this equation as (8) lnKlip−lnχdσ−lnχd=π⋅adNA/RT
Differentiating with respect to π gives (9) −RTd(lnχdσ)/NAdπ=ad
Thus the molecular area of the drug defines the slope of χdσ , with which the drug re-partitions back to the subphase as surface pressure π increases. We further assume that at a given surface pressure, insertion of nd drug molecules into the film comprised of nL lipid molecules with initial area A0, should dilate the film by ΔA. (10) nd/nL=ΔA/A0⋅aL/ad
The parameter aL, the area per lipid at that particular pressure, is taken from the control pressure-area isotherm with no drug. The mole fraction of the drug in the monolayer χdσ = nd/(nd + nL) is related to the extent of monolayer dilation ΔA (11) ΔA=ad⋅nd=adnL⋅χdσ/1−χdσ
On the assumption that χdσ is small, ΔA is proportional to the mole fraction of the drug. In Equation (4) we substitute and obtain (12) −kTd(lnΔA)/dπ=ad
Thus, the molecular area of the drug can be determined from the logarithmic slope of ΔA on surface pressure. Once we know ad, we can introduce a correction to Klip due to lateral pressure change ([…]). In addition, we can estimate the molar ratio of drug-to-lipid, the mole fraction χdσ and the partitioning constant. From the extent of monolayer dilation at a constant surface pressure (chosen to be 20 mN/m), the apparent bulk-monolayer partitioning coefficient Klip could be independently estimated as Klip=χdσ/χd , where […] = Cd/55 represents the drug mole fraction in the subphase.

For data set [3], the system named is S. aureus, MRSA. Also noted: method as in PMID 17707686. Particulars: Gram-positive; cited from earlier work.
The nature of data set [4]: Tensiometry at the air-water interface (Wilhelmy method). It is filed as physicochemical. The note with it: air-water partitioning coefficient, tensiometry, buffer pH 7.4. The protocol: Surface tensions of subphase solutions with varying concentrations of platensimycin analogs were quantified using the Wilhelmy method with a piece of filter paper (Whatman, No. 1, 10.5 mm wide and 0.25 mm thick) used as a probe. The subphase buffer consisted of 200 mM KCl, 10 mM MgCl2, 5 mM CaCl2, 5 mM HEPES (Sigma-Aldrich, St. Louis, MO, USA) titrated to a pH of 7.4 with KOH. The pressure sensor (model 601, NIMA, Coventry, UK) was calibrated using a 100 mg weight. Water surface tension was measured to be […], after calibration. […] The surface activity and values for molecular area at the surface of the air-water interface (As), the partition coefficient at the air-water interface of the surface active molecule (KAW), and the membrane partitioning coefficient (Kmem), were determined as described previously.
The analysis of interfacial adsorption data was performed in the general framework of the Gibbs equation (1) dπ=∑Γidμi where dπ represents a small change in surface pressure, Γi is surface excess of component i and dμi is the small change of chemical potential of that component in the aqueous phase. For one adsorbing component, in an ideal case the Gibbs isotherm takes the form (2) dπ=RTΓd ln C where surface excess is defined as the surface density of molecules Γ = 1/(NAaS), NA is Avogadro’s number and aS is the area requirement for the molecule at the surface. The adsorbing substance gradually saturates the surface; the process that can be approximated by a Langmuir isotherm: (3) Γ=Γ∞lnKAW⋅C/1+KAW⋅C
Thus, beyond a certain bulk concentration, Γ approaches a constant value of Γ∞ and in that range of concentrations a linear relationship holds: (4) Γ∞=(1/RT)dπ/d ln C
To evaluate the partition coefficient for an air-water interface (KAW) and monolayers (Klip), the integral form of this equation attributed to Szyszkowski and previously applied to monolayers by Seelig and coworkers was used: (5) π=RTΓ∞ln(KAWC+1)
As was shown in Suomolainen 2004 [5], the x-intercept of the fitting line of experimental π-lnC curve would approximate the inverse partitioning coefficient 1/KAW, measured at the air-water interface.

Data set [5] deals with Bacillus subtilis. Particulars: cited from earlier work.
Data set [6] deals with E. faecium, VRE. Also noted: method as in PMID 17707686. The note with it: Gram-positive; cited from earlier work.
For data set [7], the system named is A98S MscS in the cytoplasmic membrane of E. coli. The experiment in a line: Patch-clamp of A98S MscS in excised spheroplast patches (activation midpoint shift). The protocol:
A pB10b vector was used to house and express the mscS gene in the triple-knockout E. coli strain MJF465 (mscS^−, mscL^−, mscK^−). The A98S MscS mutant, generated and partially characterized previously, was chosen for its higher sensitivity to inner leaflet drug partitioning.
Spheroplasts were generated as described previously. The experimental bath solution contained 400 mM sucrose, 200 mM KCl, 50 mM MgCl2, 5 mM CaCl2, and 5 mM HEPES and was titrated to pH 7.4 with KOH. Membrane patches were obtained on borosilicate glass pipettes and recorded at 30 mV pipette voltage set by a microelectrode amplifier. The midpoint of activation for channels in each patch was determined at two-minute intervals for the duration of the experiment via a 1 s ramp of saturating pressure. Analogs of platensimycin were pre-diluted in either ethanol or bath solution and perfused into the bath to achieve the desired concentration; control injections of equivalent volumes of ethanol had no effect on the midpoint of activation. Negative pressure (suction) was applied with the HSPC-1 high speed pressure clamp apparatus from ALA Scientific. Programming of the pressure protocols and data analysis was performed with the PClamp10 suite (Axon Instr., Foster City, CA, USA). The principle of lateral pressure measurements using two experimental systems, lipid monolayers and patch-clamp, is illustrated in Figure 1.
Similarly, the bulk-membrane partitioning coefficient (Kmem) was estimated from the values of relative increase in MscS activation pressure midpoint (p0.5) measured in patch-clamp experiments at different concentrations of intercalating agents by linear fit of Δp0.5 as a function of log(Cd).
(In general: The patch-clamp technique gives a direct electrical read-out from membranes.)

The test system of data set [8] is WT MscS in the cytoplasmic membrane of E. coli. The data set can be described thus: Patch-clamp of WT MscS in excised spheroplast patches (activation midpoint shift). The note with it: cytoplasmic addition of 0.6 mM, six independent patches. An excerpt: We explored the A98S gain-of-function mutant of MscS and found it to be a more suitable sensor. In pressure ramp experiments this mutant activates earlier, but apparently has the same tension dependency of inactivation as WT [20]. […] The serine-for-alanine substitution hydrophilizes the outer portion of the hydrophobic pore. As a result, the remaining hydrophobic region is localized to the cytoplasmic portion of the pore, placing the gate more asymmetrically relative to the mid-plane of the bilayer. […] We tested this mutant against WT with a cytoplasmic addition of 0.6 mM paraben, which has been characterized previously. The typical activation curves (open probability vs. pipette pressure) measured with pipettes of equal size for the two channels are shown in Figure 2. Not only is the absolute shift of activating pressure (p0.5) greater for A98S, but the percentage of midpoint shift relative to the original midpoint averaged for six independent patches was 41% ± 6% for the mutant vs. 14% ± 4% for WT. […]
Spheroplasts were generated as described previously. […] Membrane patches were obtained on borosilicate glass pipettes and recorded at 30 mV pipette voltage set by a microelectrode amplifier. The midpoint of activation for channels in each patch was determined at two-minute intervals for the duration of the experiment via a 1 s ramp of saturating pressure. […]

In the case of `CC1(C)C2CC=C(CN(CCC(=O)Nc3c(O)ccc(C(=O)O)c3O)CC3=CCC4CC3C4(C)C)C1C2` [QD-11, myrtemycin], the “Activity against E. coli” value in data set [1] is “active”. The “Concentration in the subphase at which presence is detectable on isotherms” value in data set [2] was 10^−7 M. The “log Klip @ 20 mN/m, Measured” value in data set [2] (E. coli polar lipid monolayer, 20 mN/m, pH 7.4, ~20 °C) is recorded as 6.7. Also, the “Effective Molec. Area (ad)” value in data set [2] (area taken by the drug in the monolayer, from slopes of log(ΔArea) vs. surface pressure) was 31 Å^2. For the same molecule, the “log Klip @ 35 mN/m, Corrected” value in data set [2] (corrected to the monolayer-bilayer equivalence pressure 35 mN/m (Equation 6)) was 6.2. The “Activity against S. aureus, MRSA” value in data set [3] is “active”. Also, in data set [4], the “log KAW (tens.)” value was 6.1. The “Activity against B. subtilis” value in data set [5] (Gram-positive) is recorded as “active”. In addition, the “MIC for B. subtilis” value in data set [5] (cultures of Bacillus subtilis, ref 22 (table title)) is listed as 4 µg/mL. Also, in data set [6], the “Activity against E. faecium, VRE” value is “active”. For the same molecule, the “Initial unilateral insertion into the membrane relative to flipping across the membrane” value in data set [7] (sequential additions) is recorded as “five to six times faster”. The “log Kmem (patch-clamp)” value in data set [7] (x-intercept of midpoint shift (∆p0.5) vs. concentration, native E. coli membrane, cytoplasmic side) is 5.7.
Take `CCCCOC(=O)c1ccc(O)cc1` [paraben, butyl paraben, reference compound]: the “Percentage of midpoint shift relative to the original midpoint” value in data set [8] was 14% ± 4%; in data set [7] (A98S MscS, cytoplasmic addition of 0.6 mM, six independent patches), 41% ± 6%.
